According to US6444616B1, “Substituted p-trifluoromethylphenyluracils” (Bayer Aktiengesellschaft, priority 1999, dated 2002):

Key:
Sinapis [1] = assay: Pre-emergence test; format: in vivo; settings: rated after 3 weeks, application rate not stated
Description: (§1) Solvent: 5 parts by weight of acetone
(§2) Emulsifier: 1 part by weight of alkylaryl polyglycol ether
(§3) To produce a suitable preparation of active compound, 1 part by weight of active compound is mixed with the stated amount of solvent, the stated amount of emulsifier is added and the concentrate is diluted with water to the desired concentration.
(§4) Seeds of the test plants are sown in normal soil. After about 24 hours, the soil is sprayed with the preparation of active compound in such a way as to apply the particular amounts of active compound desired per unit area. The concentration of the spray liquor is chosen so that the particular amounts of active compound desired are applied in 1000 l of water/ha.
(§5) After 3 weeks, the degree of damage to plants is rated in % damage in comparison to the development of the untreated control.
(§6) 0%=no effect (like untreated control)

Cyperus = assay: Pre-emergence test; format: in vivo; settings: rated after 3 weeks, application rate not stated, 0%=no effect, 100%=total destruction
Description: as §1, §2, §3, §4, §5, §6

Sinapis [2] = assay: Postemergence test; format: in vivo; settings: plants 5-15 cm sprayed, rated after 3 weeks, application rate not stated
Description: as §1, §2
(§7) To produce an effective preparation of active compound, 1 part by weight of active compound is mixed with the stated amount of solvent, the stated amount of emulsifier is added and the concentrate is diluted with water to the desired concentration.
(§8) Test plants which have a height of 5-15 cm are sprayed with the preparation of active compound in such a way as to apply the particular amounts of active compound desired per unit area. The concentration of the spray liquor is chosen so that the particular amounts of active compound desired are applied in 1000 l of water/ha.
(§9) After 3 weeks, the degree of damage to the plants is rated in % damage in comparison to the development of the untreated control.
as §6

Ipomoea = assay: Postemergence test; format: in vivo; settings: plants 5-15 cm sprayed, rated after 3 weeks, application rate not stated
Description: as §1, §2, §7, §8, §9, §6

Abutilon = assay: Postemergence test; format: in vivo; settings: plants 5-15 cm sprayed, rated after 3 weeks, application rate not stated
Description: as §1, §2, §7, §8, §9, §6

Matricaria = assay: Postemergence test; format: in vivo; settings: plants 5-15 cm sprayed, rated after 3 weeks, application rate not stated
Description: as §1, §2, §7, §8, §9, §6

datura = assay: Postemergence test; format: in vivo; settings: plants 5-15 cm sprayed, rated after 3 weeks, application rate not stated
Description: as §1, §2, §7, §8, §9, §6

polygonum = assay: Postemergence test; format: in vivo; settings: plants 5-15 cm sprayed, rated after 3 weeks, application rate not stated
Description: as §1, §2, §7, §8, §9, §6

Solanum = assay: Postemergence test; format: in vivo; settings: plants 5-15 cm sprayed, rated after 3 weeks, application rate not stated
Description: as §1, §2, §7, §8, §9, §6

SMILES	melting point	degree of damage to plants, % damage vs untreated control (Sinapis [1])	degree of damage to plants, % damage vs untreated control (Cyperus)	degree of damage to the plants, % damage vs untreated control (Sinapis [2])	degree of damage to the plants, % damage vs untreated control (Ipomoea)	degree of damage to the plants, % damage vs untreated control (Abutilon)	degree of damage to the plants, % damage vs untreated control (Matricaria)	degree of damage to the plants, % damage vs untreated control (datura)	degree of damage to the plants, % damage vs untreated control (polygonum)	degree of damage to the plants, % damage vs untreated control (Solanum)
Nn1c(C(F)(F)F)cc(=O)n(-c2cc(F)c(C(F)(F)F)cc2F)c1=O [Example 3, 3-amino-1-(2,5-difluoro-4-trifluoromethyl-phenyl)-3,6-dihydro-2,6-dioxo-4-trifluoromethyl-1 (2H)-pyrimidine]	157 °C	–	–	–	–	–	–	–	–	–
O=c1cc(C(F)(F)F)[nH]c(=O)n1-c1cc(F)c(C(F)(F)F)cc1F [Example 1, 1-(2,5-difluoro4-trifluoromethyl-phenyl)-3,6-dihydro-2,6-dioxo-4-trifluoromethyl-1(2H)-pyrimidine]	217 °C	–	–	–	–	–	–	–	–	–
Cn1c(C(F)(F)F)cc(=O)n(-c2cc(F)c(C(F)(F)F)cc2F)c1=O [Example 2, 1-(2,5-difluoro-4-trifluoromethyl-phenyl)-3,6-dihydro-2,6-dioxo-3-methyl-4-trifluoromethyl-1 (2H)-pyrimidine]	110 °C	100%	80%	100%	100%	100%	100%	100%	95%	100%
Cn1c(C(F)(F)F)cc(=O)n(-c2cc(NS(C)(=O)=O)c(C(F)(F)F)cc2F)c1=O [Example 5]	163 °C	100%	80%	100%	100%	100%	100%	100%	95%	100%
CS(=O)(=O)Nc1cc(-n2c(=O)cc(C(F)(F)F)[nH]c2=O)c(F)cc1C(F)(F)F [Example 4]	227 °C	100%	80%	100%	100%	100%	100%	100%	95%	100%
